# Experimental data as given in patent US9617250B2, “Pyridin-4-yl derivatives” (ACTELION PHARMACEUTICALS LTD., priority 2013, dated 2017).
# Assays:
# human S1P3 receptor = human S1P3 receptor (Homo sapiens (Human), UniProt Q99500); assay: GTPγS assay to determine EC50 values, S1P3; type: biochemical; conditions: comparison in words
# circulating lymphocytes = assay: Assessment of in vivo efficacy: circulating lymphocytes after oral administration; design: species or system rat; conditions: 6 h after oral administration of 10 mg/kg, normotensive male Wistar rats, compared to vehicle group
# Description: The efficacy of the compounds of Formula (I) is assessed by measuring the circulating lymphocytes after oral administration of 3 to 30 mg/kg of a compound of Formula (I) to normotensive male Wistar rats. The animals are housed in climate-controlled conditions with a 12 h-light/dark cycle, and have free access to normal rat chow and drinking water. Blood is collected before and 3, 6 and 24 h after drug administration. Full blood is subjected to hematology using Advia Hematology system (Bayer Diagnostics, Zürich, Switzerland).
# All data are presented as mean±SEM. Statistical analyses are performed by analysis of variance (ANOVA) using Statistica (StatSoft) and the Student-Newman-Keuls procedure for multiple comparisons. The null hypothesis is rejected when p<0.05.
# Lymphocyte counts 6 h after oral administration have been measured for 2 out of 8 exemplified compounds and are in the range of −71% to −73% with an average of −72%.
# Sequence of human S1P3 receptor (Q99500 whole entry): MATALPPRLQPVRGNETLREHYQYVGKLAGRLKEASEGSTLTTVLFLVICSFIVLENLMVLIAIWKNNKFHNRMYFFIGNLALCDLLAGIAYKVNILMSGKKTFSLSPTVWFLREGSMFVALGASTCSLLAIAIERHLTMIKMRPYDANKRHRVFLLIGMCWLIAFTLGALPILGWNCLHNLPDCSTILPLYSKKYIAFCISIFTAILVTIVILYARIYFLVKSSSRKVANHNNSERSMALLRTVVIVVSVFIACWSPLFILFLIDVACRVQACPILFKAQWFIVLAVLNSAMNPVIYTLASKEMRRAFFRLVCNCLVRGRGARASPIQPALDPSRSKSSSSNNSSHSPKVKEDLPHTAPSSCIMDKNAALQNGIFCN
potency on S1P3 receptor compared to closest analog in D1 (human S1P3 receptor),Structure (SMILES),Lymphocyte counts (circulating lymphocytes) [%]
clearly less potent,"CCCc1cc(-c2nc(-c3cc(C)c(OC[C@@H](O)CNC(=O)CO)c(CC)c3)no2)ccn1 [Example 2, (S)—N-(3-(2-ethyl-4-(5-(2-propylpyridin-4-yl)-1,2,4-oxadiazol-3-yl)-6-methyl-phenoxy)-2-hydroxypropyl)-2-hydroxyacetamide]",
significantly less potent,"CCc1cc(-c2noc(-c3ccnc(CC(C)C)c3)n2)cc(C)c1OC[C@@H](O)CNC(=O)CO [Example 5, (S)—N-(3-(2-Ethyl-4-(5-(2-isobutylpyridin-4-yl)-1,2,4-oxadiazol-3-yl)-6-methylphenoxy)-2-hydroxypropyl)-2-hydroxyacetamide]",
significantly less potent,"CCc1cc(-c2noc(-c3ccnc(C(CC)CC)c3)n2)cc(C)c1OC[C@@H](O)CNC(=O)CO [Example 7, (S)—N-(3-(2-ethyl-4-(5-(2-(pentan-3-yl)-pyridin-4-yl)-1,2,4-oxadiazol-3-yl)-6-methylphenoxy)-2-hydroxypropyl)-2-hydroxyacetamide]",−71
significantly less potent,"CCc1cc(-c2noc(-c3ccnc(C4CCCC4)c3)n2)cc(C)c1OC[C@@H](O)CNC(=O)CO [Example 8, (S)—N-(3-(2-ethyl-4-(5-(2-cyclopentylpyridin-4-yl)-1,2,4-oxadiazol-3-yl)-6-methylphenoxy)-2-hydroxypropyl)-2-hydroxyacetamide]",−73
